Earlier results in patent publication US20260314597A1, “A NOVEL APPROACH TO INTERFERE IN THE PHENYLPROPANOID BIOSYNTHETIC PATHWAY TO REDUCE PINK-RIB DISORDER IN FRESH LETTUCE” (University of Florida Research Foundation, Inc., priority 2022, published 2026).
“Also recorded” adds a separate entry of the source. Read-outs that look alike come from different tables or passages of the source.

Key:
fresh-cut artichoke = conditions: L-cysteine 0.5% or 41.3 mM; cited from earlier work
[1] = system: chlorogenic acid concentration in homogenized lettuce tissue; conditions: L-cysteine; 24 h at 25° C.; cited from earlier work
PPO [2] = conditions: role: inhibitor; L-cysteine 1 to 5 mM; cited from earlier work
fresh-cut fennel = conditions: L-cysteine 0.5% or 41.3 mM; 6 d at 5° C.; cited from earlier work
litchi fruit [3] = conditions: melatonin 0.4 mM, cited from earlier work
PAL = conditions: melatonin 0.1 mM; after 2 d at 4° C.; cited from earlier work
PPO [4] = conditions: melatonin 0.1 mM; after 2 d; cited from earlier work
litchi fruit [5] = conditions: cited from earlier work

| SMILES | effect on browning of artichoke (fresh-cut artichoke) | chlorogenic acid concentration [1] | PPO activity (PPO [2]) | effect on browning of fennel (fresh-cut fennel) | delay of pericarp browning (litchi fruit [3]; 25° C.) [days] | discoloration of litchi pericarp (litchi fruit [3]; up to 6 d) | PAL activity (PAL) | PPO activity (PPO [4]) | increase in total phenolics (litchi fruit [5]; melatonin 0.4 mM, litchi pericarp, up to 6 d) | activity of several antioxidants (litchi fruit [5]; melatonin 0.4 mM, litchi) | free radical development (litchi fruit [5]; melatonin 0.4 mM, litchi) | key enzymes in the melatonin biosynthesis pathway (litchi fruit [5]; melatonin, litchi) |
| --- | --- | --- | --- | --- | --- | --- | --- | --- | --- | --- | --- | --- |
| N[C@@H](CS)C(=O)O [L-cysteine] | no effect; also recorded: developed browning or became yellow | reduced chlorogenic acid concentration | linear decline in PPO activity | no effect; also recorded: ineffective | – | – | – | – | – | – | – | – |
| COc1ccc2[nH]cc(CCNC(C)=O)c2c1 [melatonin] | – | – | – | – | 4 | significant decrease | higher | significantly lower | approximately 40% | increased | reduced | Upregulation |
